According to ChEMBL document CHEMBL5523766 (J Med Chem, 2024):

Tests used:
[1] = target: Tyrosine-protein kinase Lyn (Homo sapiens, UniProt P07948); experiment: Inhibition of human LYN
[2] = Apparent permeability across apical to basolateral side in human Caco-2 cells; assay type: ADME, cell-based
[3] = Tmax in ICR mouse at 50 mg/kg,po measured upto 24 hrs by LC-MS/MS analysis; assay type: ADME, organism-based; conditions: in vivo
AMPK alpha2/beta1/gamma1 = AMPK alpha2/beta1/gamma1 (Homo sapiens, UniProt P54619+P54646+Q9Y478); experiment: Inhibition of human AMPK alpha2/beta1/gamma1; assay type: protein-complex assay
[4] = target: Receptor-type tyrosine-protein kinase FLT3 (Homo sapiens, UniProt P36888); experiment: Inhibition of human FLT3
CYP3A4 = CYP3A4 (Homo sapiens, UniProt P08684); experiment: Time dependent inhibition of CYP3A4 (unknown origin) at 10 uM relative to control; assay type: ADME; conditions: read-out: TDI
CYP2D6 = CYP2D6 (Homo sapiens, UniProt P10635); experiment: Time dependent inhibition of CYP2D6 (unknown origin) at 10 uM relative to control; assay type: ADME; conditions: read-out: TDI
[5] = target: DNA-dependent protein kinase catalytic subunit (Homo sapiens, UniProt P78527); experiment: Inhibition of human DNA-PK
[6] = Apparent permeability across apical to basolateral side in dog MDCK-MDR1 cells; assay type: ADME, cell-based, Canis lupus familiaris
[7] = target: Tyrosine-protein kinase Mer (Homo sapiens, UniProt Q12866); experiment: Inhibition of human MER
[8] = target: Serine/threonine-protein kinase BRSK2 (Homo sapiens, UniProt Q8IWQ3); experiment: Inhibition of human BRSK2
[9] = Toxicity in CB17-SCID mouse xenografted with human Granta-519 cells assessed as change in body weight at 50 mg/kg,po once daily for 3 weeks administrated 5 days weekly in presence of niraparib; assay type: organism-based; conditions: in vivo, 504 h
[10] = Acute toxicity in Beagle dog assessed as change in platelet count at 10 to 90 mg/kg,po once daily for 7 days; assay type: organism-based, Canis lupus familiaris; conditions: in vivo, 168 h, dose 10-90 mg/kg, time 7 day
[11] = Toxicity in BALB/c mouse xenografted with human HT-29 cells assessed as change in body weight at 50 mg/kg,po once daily for 4 weeks in presence of 3 Gy of ionizing radiation; assay type: organism-based; conditions: in vivo, 672 h
[12] = Toxicity in BALB/c mouse xenografted with human CAPAN-1 cells assessed as change in body weight at 50 mg/kg,po once daily for 3 weeks administrated 4 days weekly in presence of gemcitabine; assay type: organism-based; conditions: in vivo, 504 h
[13] = target: Cyclin-dependent kinase 2 (Homo sapiens, UniProt P24941); experiment: Inhibition of human CDK2
[14] = Half life in ICR mouse at 50 mg/kg,po measured upto 24 hrs by LC-MS/MS analysis; assay type: ADME, organism-based; conditions: in vivo
[15] = Toxicity in CB17-SCID mouse xenografted with human Granta-519 cells assessed as change in body weight at 50 mg/kg,po bid for 3 weeks administrated 5 days weekly; assay type: organism-based; conditions: in vivo, 504 h
CYP1A2 = CYP1A2 (Homo sapiens, UniProt P05177); experiment: Time dependent inhibition of CYP1A2 (unknown origin) at 10 uM relative to control; assay type: ADME; conditions: read-out: TDI
[16] = Apparent permeability across basolateral to apical side in human Caco-2 cells; assay type: ADME, cell-based
[17] = Toxicity in BALB/c mouse xenografted with human A2780 cells assessed as change in body weight at 50 mg/kg,po bid for 3 weeks administrated 5 days weekly; assay type: organism-based; conditions: in vivo, 504 h
[18] = target: Tyrosine-protein kinase JAK1 (Homo sapiens, UniProt P23458); experiment: Inhibition of human JAK1
[19] = target: Tyrosine-protein kinase Lck (Homo sapiens, UniProt P06239); experiment: Inhibition of human LCK
[20] = Brain to plasma ratio in ICR mouse at 50 mg/kg,po measured upto 24 hrs by LC-MS/MS analysis; assay type: ADME, organism-based
Granta-519 [21] = experiment: Induction of apoptosis in human Granta-519 cells assessed as viable cells at 500 nM incubated for 48 hrs by Annexin-V-FITC/propidium iodide staining based flow cytometry (reference value: 92.7 %); assay type: functional; conditions: read-out: Activity
[22] = Plasma protein binding in mouse; assay type: ADME, cell-free; conditions: read-out: PPB (converted)
[23] = Toxicity in BALB/c mouse xenografted with human PC-3 cells assessed as change in body weight at 50 mg/kg,po bid for 3 weeks administrated 5 days weekly; assay type: organism-based; conditions: in vivo, 504 h
[24] = Cmax in ICR mouse at 50 mg/kg,po measured upto 24 hrs by LC-MS/MS analysis; assay type: ADME, organism-based; conditions: in vivo
[25] = target: NUAK family SNF1-like kinase 1 (Homo sapiens, UniProt O60285); experiment: Inhibition of human ARK5
[26] = Acute toxicity in Beagle dog assessed as change in body weight at 10 to 90 mg/kg,po once daily for 7 days; assay type: organism-based, Canis lupus familiaris; conditions: in vivo, 168 h, dose 10-90 mg/kg, time 7 day
[27] = target: Serine-protein kinase ATM (Homo sapiens, UniProt Q13315); experiment: Inhibition of human ATM
[28] = target: Phosphatidylinositol 4,5-bisphosphate 3-kinase catalytic subunit alpha isoform (Homo sapiens, UniProt P42336); experiment: Inhibition of human PI3Kalpha
[29] = AUCinfinity in ICR mouse at 50 mg/kg,po measured upto 24 hrs by LC-MS/MS analysis; assay type: ADME, organism-based; conditions: in vivo
ATR/ATRIP = ATR/ATRIP (Homo sapiens, UniProt Q13535); experiment: Inhibition of ATR/ATRIP (unknown origin) using 5-FAM-AK-17 as substrate preincubated with compound for 10 mins followed by ATP addition and measured after 240 mins by mobility shift assay; assay type: protein-complex assay
[30] = target: Tyrosine-protein kinase BTK (Homo sapiens, UniProt Q06187); experiment: Inhibition of human BTK
[31] = target: Serine/threonine-protein kinase 17B (Homo sapiens, UniProt O94768); experiment: Inhibition of human DRAK2
[32] = AUClast in ICR mouse at 50 mg/kg,po measured upto 24 hrs by LC-MS/MS analysis; assay type: ADME, organism-based; conditions: in vivo
[33] = Acute toxicity in Beagle dog assessed as change in serum creatinine level at 10 to 90 mg/kg,po once daily for 7 days; assay type: organism-based, Canis lupus familiaris; conditions: in vivo, 168 h, dose 10-90 mg/kg, time 7 day
Granta-519 [34] = experiment: Induction of apoptosis in human Granta-519 cells assessed as viable cells at 2000 nM incubated for 48 hrs by Annexin-V-FITC/propidium iodide staining based flow cytometry (reference value: 92.7 %); assay type: functional; conditions: read-out: Activity
CYP2C9 = CYP2C9 (Homo sapiens, UniProt P11712); experiment: Time dependent inhibition of CYP2C9 (unknown origin) at 10 uM relative to control; assay type: ADME; conditions: read-out: TDI
[35] = target: Serine/threonine-protein kinase ATR (Homo sapiens, UniProt Q13535); experiment: Inhibition of human ATR
[36] = Apparent permeability across basolateral to apical side in dog MDCK-MDR1 cells; assay type: ADME, cell-based, Canis lupus familiaris
Aurora kinase B = Aurora kinase B (Homo sapiens, UniProt Q96GD4); experiment: Inhibition of human Aurora B
[37] = target: Serine/threonine-protein kinase mTOR (Homo sapiens, UniProt P42345); experiment: Inhibition of human mTOR
[38] = target: Interleukin-1 receptor-associated kinase 4 (Homo sapiens, UniProt Q9NWZ3); experiment: Inhibition of human IRAK4
Granta-519 [39] = experiment: Induction of apoptosis in human Granta-519 cells assessed as viable cells at 1000 nM incubated for 48 hrs by Annexin-V-FITC/propidium iodide staining based flow cytometry (reference value: 92.7 %); assay type: functional; conditions: read-out: Activity
CYP2C19 = CYP2C19 (Homo sapiens, UniProt P33261); experiment: Time dependent inhibition of CYP2C19 (unknown origin) at 10 uM relative to control; assay type: ADME; conditions: read-out: TDI
[40] = Lipophilicity, logD of compound at pH 7.4; assay type: physicochemical; conditions: buffer

Chain of Serine/threonine-protein kinase BRSK2 (Q8IWQ3 whole entry): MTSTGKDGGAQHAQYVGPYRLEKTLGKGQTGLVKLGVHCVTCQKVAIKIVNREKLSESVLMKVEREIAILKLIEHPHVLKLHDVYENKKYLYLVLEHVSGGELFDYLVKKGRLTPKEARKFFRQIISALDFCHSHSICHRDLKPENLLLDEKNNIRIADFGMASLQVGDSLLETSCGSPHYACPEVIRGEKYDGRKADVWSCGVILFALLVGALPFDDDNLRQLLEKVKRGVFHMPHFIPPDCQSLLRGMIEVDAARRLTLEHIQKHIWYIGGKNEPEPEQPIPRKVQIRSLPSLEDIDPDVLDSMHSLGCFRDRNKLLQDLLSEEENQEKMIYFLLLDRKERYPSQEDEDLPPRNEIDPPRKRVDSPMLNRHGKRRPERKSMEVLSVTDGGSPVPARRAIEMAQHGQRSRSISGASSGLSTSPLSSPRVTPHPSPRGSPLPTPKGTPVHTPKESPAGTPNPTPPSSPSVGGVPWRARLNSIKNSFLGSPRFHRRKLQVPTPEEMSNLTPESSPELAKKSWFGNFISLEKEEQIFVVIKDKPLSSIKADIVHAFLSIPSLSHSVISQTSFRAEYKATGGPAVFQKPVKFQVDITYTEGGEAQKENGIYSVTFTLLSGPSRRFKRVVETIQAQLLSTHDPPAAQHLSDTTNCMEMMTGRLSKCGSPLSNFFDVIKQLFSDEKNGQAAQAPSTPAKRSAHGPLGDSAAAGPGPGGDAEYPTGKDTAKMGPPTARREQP
Chain of Serine-protein kinase ATM (Q13315 whole entry, canonical isoform): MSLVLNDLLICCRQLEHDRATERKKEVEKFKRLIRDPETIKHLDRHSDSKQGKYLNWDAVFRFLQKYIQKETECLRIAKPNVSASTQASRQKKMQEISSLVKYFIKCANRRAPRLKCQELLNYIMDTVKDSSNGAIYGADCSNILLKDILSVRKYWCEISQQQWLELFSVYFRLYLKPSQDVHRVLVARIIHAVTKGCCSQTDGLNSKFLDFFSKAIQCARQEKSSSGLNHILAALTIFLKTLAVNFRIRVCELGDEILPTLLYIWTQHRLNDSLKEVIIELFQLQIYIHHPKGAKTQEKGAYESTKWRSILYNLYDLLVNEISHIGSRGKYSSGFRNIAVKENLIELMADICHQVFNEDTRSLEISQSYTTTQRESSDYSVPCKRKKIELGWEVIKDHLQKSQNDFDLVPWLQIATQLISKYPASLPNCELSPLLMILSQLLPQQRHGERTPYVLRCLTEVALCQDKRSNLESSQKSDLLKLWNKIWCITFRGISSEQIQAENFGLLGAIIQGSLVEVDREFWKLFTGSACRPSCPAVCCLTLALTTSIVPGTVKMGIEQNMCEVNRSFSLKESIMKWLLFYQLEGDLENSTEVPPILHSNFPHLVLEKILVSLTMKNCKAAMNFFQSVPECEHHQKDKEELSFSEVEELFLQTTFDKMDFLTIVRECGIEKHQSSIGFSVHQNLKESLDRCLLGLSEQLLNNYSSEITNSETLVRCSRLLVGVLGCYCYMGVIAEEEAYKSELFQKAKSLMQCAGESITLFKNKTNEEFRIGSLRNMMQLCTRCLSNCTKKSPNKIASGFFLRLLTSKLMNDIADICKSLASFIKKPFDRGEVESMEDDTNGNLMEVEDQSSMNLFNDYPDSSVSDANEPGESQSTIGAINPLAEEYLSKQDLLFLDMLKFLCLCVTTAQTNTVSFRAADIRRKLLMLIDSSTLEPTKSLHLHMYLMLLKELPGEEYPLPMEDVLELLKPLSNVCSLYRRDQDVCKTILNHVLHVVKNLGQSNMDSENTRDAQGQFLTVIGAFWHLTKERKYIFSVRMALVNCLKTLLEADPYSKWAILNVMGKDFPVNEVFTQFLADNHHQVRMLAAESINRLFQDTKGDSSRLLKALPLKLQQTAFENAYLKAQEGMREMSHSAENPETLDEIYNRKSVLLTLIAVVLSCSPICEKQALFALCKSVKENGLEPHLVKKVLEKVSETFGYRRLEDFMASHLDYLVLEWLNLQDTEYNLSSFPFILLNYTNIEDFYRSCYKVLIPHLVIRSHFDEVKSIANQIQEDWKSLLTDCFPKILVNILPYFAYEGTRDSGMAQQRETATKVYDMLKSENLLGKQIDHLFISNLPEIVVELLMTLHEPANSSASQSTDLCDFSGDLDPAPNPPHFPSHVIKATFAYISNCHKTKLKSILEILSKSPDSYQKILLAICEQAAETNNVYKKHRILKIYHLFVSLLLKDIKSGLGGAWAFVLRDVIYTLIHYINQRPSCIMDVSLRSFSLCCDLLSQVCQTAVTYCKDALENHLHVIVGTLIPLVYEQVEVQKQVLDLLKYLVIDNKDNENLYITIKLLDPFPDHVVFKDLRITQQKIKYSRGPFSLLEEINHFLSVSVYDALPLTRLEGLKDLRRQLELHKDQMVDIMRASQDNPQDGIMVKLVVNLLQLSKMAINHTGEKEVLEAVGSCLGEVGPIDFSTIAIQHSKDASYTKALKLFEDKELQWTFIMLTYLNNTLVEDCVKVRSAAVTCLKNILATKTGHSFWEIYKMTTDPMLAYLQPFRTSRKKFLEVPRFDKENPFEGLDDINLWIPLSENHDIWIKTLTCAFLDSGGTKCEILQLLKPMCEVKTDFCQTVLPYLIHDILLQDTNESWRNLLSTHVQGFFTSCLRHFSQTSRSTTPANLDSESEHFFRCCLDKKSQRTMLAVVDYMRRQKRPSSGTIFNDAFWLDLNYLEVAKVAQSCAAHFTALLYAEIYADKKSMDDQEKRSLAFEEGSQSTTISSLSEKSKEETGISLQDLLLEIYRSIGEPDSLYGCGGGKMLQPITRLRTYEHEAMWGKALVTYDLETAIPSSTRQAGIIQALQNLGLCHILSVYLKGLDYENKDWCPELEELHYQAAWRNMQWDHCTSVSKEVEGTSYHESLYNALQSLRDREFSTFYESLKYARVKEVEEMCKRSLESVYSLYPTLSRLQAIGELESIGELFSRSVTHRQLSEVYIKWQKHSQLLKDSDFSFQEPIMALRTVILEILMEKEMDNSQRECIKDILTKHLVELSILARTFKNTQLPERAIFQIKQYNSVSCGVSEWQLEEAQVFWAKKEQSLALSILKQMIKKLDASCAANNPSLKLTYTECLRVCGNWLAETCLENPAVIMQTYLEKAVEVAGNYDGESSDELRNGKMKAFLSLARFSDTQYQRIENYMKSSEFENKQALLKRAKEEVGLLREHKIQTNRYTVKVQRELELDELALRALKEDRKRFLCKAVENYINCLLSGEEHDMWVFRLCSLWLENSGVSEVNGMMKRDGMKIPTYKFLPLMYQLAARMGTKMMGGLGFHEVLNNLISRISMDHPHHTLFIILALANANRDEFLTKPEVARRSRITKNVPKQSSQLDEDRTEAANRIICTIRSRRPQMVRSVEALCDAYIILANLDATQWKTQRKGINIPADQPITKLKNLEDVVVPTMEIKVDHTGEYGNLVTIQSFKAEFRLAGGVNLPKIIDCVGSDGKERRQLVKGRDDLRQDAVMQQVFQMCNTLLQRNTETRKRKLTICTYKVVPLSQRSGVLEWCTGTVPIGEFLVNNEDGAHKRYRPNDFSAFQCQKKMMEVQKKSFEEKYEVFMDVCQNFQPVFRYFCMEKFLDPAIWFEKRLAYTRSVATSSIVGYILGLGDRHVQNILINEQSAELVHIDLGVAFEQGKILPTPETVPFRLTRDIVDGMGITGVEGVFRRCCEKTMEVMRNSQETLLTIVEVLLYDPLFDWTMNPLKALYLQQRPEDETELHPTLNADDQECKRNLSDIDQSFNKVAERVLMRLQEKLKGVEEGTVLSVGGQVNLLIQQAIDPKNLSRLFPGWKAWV
Chain of CYP1A2 (P05177 whole entry): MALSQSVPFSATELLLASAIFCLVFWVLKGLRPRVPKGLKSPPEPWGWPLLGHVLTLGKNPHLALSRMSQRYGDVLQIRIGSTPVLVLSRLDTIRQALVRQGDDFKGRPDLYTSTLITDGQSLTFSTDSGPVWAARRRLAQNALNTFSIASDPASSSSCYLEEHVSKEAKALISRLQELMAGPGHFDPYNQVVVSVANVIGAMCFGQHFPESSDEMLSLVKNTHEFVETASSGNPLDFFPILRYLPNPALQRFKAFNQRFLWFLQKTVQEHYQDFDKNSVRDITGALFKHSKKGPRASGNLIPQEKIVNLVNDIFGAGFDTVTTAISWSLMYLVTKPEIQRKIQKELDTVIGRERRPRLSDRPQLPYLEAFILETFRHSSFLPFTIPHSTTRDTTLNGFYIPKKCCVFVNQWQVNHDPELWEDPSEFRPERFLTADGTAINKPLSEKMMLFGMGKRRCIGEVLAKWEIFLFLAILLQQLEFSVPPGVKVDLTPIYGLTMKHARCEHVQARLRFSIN
Chain of Aurora kinase B (Q96GD4 whole entry): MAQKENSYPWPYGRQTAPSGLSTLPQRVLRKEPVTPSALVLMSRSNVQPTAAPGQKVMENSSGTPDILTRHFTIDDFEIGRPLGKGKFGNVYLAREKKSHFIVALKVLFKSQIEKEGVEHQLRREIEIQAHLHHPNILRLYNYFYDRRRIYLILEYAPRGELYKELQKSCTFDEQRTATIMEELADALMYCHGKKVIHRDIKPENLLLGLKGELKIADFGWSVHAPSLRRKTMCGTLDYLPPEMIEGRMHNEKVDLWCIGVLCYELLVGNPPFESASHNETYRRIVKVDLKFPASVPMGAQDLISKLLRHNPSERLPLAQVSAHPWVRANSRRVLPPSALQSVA
Chain of Interleukin-1 receptor-associated kinase 4 (Q9NWZ3 whole entry): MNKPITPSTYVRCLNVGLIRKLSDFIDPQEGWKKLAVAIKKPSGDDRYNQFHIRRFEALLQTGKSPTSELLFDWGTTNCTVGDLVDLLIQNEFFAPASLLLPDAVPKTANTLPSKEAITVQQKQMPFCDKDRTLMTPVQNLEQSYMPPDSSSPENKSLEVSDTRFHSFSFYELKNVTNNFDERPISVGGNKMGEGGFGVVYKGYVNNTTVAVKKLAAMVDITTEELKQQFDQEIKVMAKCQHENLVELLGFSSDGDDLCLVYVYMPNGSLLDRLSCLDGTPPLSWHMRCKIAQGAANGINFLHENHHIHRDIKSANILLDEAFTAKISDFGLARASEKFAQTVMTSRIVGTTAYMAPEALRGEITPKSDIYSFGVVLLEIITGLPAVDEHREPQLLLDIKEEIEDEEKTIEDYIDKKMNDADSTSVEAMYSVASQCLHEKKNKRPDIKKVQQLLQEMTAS

## C[C@@H]1COCCN1c1nc(-c2ccnc3[nH]ccc23)nc2c1ccn2S(C)(=O)=O
[1]
  IC50: > 10 µM
[2]
  Papp A→B: 39.6 ×10⁻⁶ cm/s
[3]
  Tmax: 1 h
AMPK alpha2/beta1/gamma1
  IC50: > 10 µM
[4]
  IC50: > 10 µM
CYP3A4
  inhibition at 10 µM: 21.2%
CYP2D6
  inhibition at 10 µM: 2%
[5]
  IC50: 0.119 µM
[6]
  Papp A→B: 41.9 ×10⁻⁶ cm/s
[7]
  IC50: > 10 µM
[8]
  IC50: > 10 µM
[9]
  Activity: Toxic
[10]
  Activity: Toxic
[11]
  Activity: Toxic
[12]
  Activity: Toxic
[13]
  IC50: > 10 µM
[14]
  half-life: 2.29 h
[15]
  Activity: Toxic
CYP1A2
  inhibition at 10 µM: 37.5%
[16]
  Papp B→A: 32.5 ×10⁻⁶ cm/s
[17]
  Activity: Toxic
[18]
  IC50: > 10 µM
[19]
  IC50: 2.59 µM
[20]
  BPR: 31%
Granta-519 [21]
  viability at 0.5 µM: 89.6%
[22]
  fraction unbound: 0.005
[23]
  Activity: Toxic
[24]
  Cmax: 19800 ng/mL
[25]
  IC50: 7.31 µM
[26]
  Activity: Non-Toxic
[27]
  IC50: 3.21 µM
[28]
  IC50: 2.06 µM
[29]
  AUC(0-inf): 140 µg·h/mL
ATR/ATRIP
  IC50: 0.0016 µM
[30]
  IC50: > 10 µM
[31]
  IC50: > 10 µM
[32]
  AUC(0-t) at 24 h: 140 µg·h/mL
[33]
  Activity: Toxic
Granta-519 [34]
  viability at 2 µM: 76.9%
CYP2C9
  inhibition at 10 µM: 7.09%
[35]
  IC50: 0.0025 µM
[36]
  Papp B→A: 51.2 ×10⁻⁶ cm/s
Aurora kinase B
  IC50: > 10 µM
[37]
  IC50: 0.0458 µM
[38]
  IC50: > 10 µM
Granta-519 [39]
  viability at 1 µM: 81.3%
CYP2C19
  inhibition at 10 µM: 12.1%
[40]
  logD: 3.61
